Experimental data from patent publication US20120225921A1, “METHOD OF CONTROLLING PHYTOPATHOGENIC DISEASES ON TURFGRASS” (SYNGENTA CROP PROTECTION, LLC, priority 2006, published 2012).

Key:
Type in all cases: in vivo
Sclerotinia homoeocarpa [1] = assay: Control of Sclerotinia homoeocarpa on Kentucky Bluegrass (Example B-2, plot spray treatment); conditions: 500 g ai/ha, sprayed three times every 14 days, assessed 19 days after last treatment, vs untreated (58% diseased)
Procedure: Plots were inoculated with Kentucky Bluegrass (Poa pratensis L.) seeds infested with Sclerotinia homoeocarpa, and a quantity of formulations A and B which corresponds to a dose shown in the table below and expressed in g/ha was sprayed on the plots. This treatment was repeated three times at an interval of 1 treatment every 14 days. 19 days after the last treatment, the disease incidence and severity was assessed visually. […] Disease control is shown as % disease control compared to untreated Kentucky Bluegrass.

Rhizoctonia solani = assay: Control of Rhizoctonia solani on Colonial Bentgrass (Example B-4); conditions: 302 g ai/ha, application interval 14 days, three sprays, assessed 21 days after final application, natural infection, vs untreated (80% diseased)
Procedure: Plots of Colonial Bentgrass (Agrostis tenius Sibth.) naturally infected with brown patch (Rhizoctonia solani) were treated with quantities of formulation C which correspond to a dose shown in the table below and expressed in g ai/ha. The dose corresponding to 302 g ai/ha was sprayed three times with an interval of 14 days. The dose corresponding to 604 g ai/ha was sprayed two times with an interval of 28 days. At 21 days after the final application of both dose rates, disease severity was assessed visually. […] Disease control is shown as % disease control compared to untreated plots.

[2] = tested on: Colletotrichum graminicola; assay: Control of Colletotrichum graminicola on Annual Bluegrass/Creeping Bentgrass (Example B-3); conditions: 500 g ai/ha; application interval 21 days, three sprays; assessed 10 days after final application; Poa/Bentgrass, natural infection; vs untreated (44% diseased)
Procedure: The following EC formulation was prepared: […]
Plots of a mixture of Annual Bluegrass (Poa annua) and Creeping Bentgrass (Agrostis stolifera) naturally infected with anthracnose (Colletotrichum graminicola) were treated with quantities of formulation C which correspond to a dose shown in the table below and expressed in g ai/ha. The dose corresponding to 250 g ai/ha was sprayed four times with an interval of 14 days. The dose corresponding to 500 g ai/ha was sprayed three times with an interval of 21 days. At 23 days after the final application with the 250 g ai/ha dose, and 10 days after the final application with the 500 g ai/ha dose, disease severity was assessed visually. […] Disease control is shown as % disease control compared to untreated plots.

Sclerotinia homoeocarpa [3] = assay: Control of Sclerotinia homoeocarpa on Creeping Bentgrass (Example B-1, plot spray treatment); conditions: 500 g ai/ha, sprayed three times every 14 days, assessed 19 days after last treatment, vs untreated (60% diseased)
Procedure: The following EC formulations were prepared: […]
Plots were inoculated with Creeping Bentgrass (Agrostis palustris Huds.) seeds infested with Sclerotinia homoeocarpa, and a quantity of formulations A and B which corresponds to a dose shown in the table below and expressed in g/ha was sprayed on the plots. This treatment was repeated three times at an interval of 1 treatment every 14 days. 19 days after the last treatment, the disease incidence and severity was assessed visually. […] Disease control is shown as % disease control compared to untreated Creeping Bentgrass.

| Compound | % Disease Control (Sclerotinia homoeocarpa [1]) | % Disease Control (Rhizoctonia solani) | % Disease Control [2] | % Disease Control (Sclerotinia homoeocarpa [3]) |
| --- | --- | --- | --- | --- |
| CC(C)C1C2CCC1c1c(NC(=O)c3cn(C)nc3C(F)F)cccc12 (racemic) [Compound IAc] | 88% | 97% | 92% | 93% |
| CC(C)CC(C)c1sccc1NC(=O)c1cn(C)nc1C(F)(F)F (stereo not drawn) [Penthiopyrad, N-[2-(1,3-dimethylbutyl)-3-thienyl]-1-methyl-3-(trifluoromethyl)-1H-pyrazole-4-carboxamide, reference compound] | 21% |  |  | 57% |
